# Results as given in patent US4393225A, “AI-77 Compounds and pharmaceutically acceptable salts thereof” (Asahi Kasei Kogyo Kabushiki Kaisha, priority 1979, dated 1983).
# Tested on: ulcer
# Assay: Anti-ulcer test (restraint and water immersion ulcer in rats, i.p.)
# Type: in vivo, Male Wistar rats
# Conditions: Rattus norvegicus, ip; 25 mg/kg i.p.; read-out: % Inhibition of Ulcer
# In short: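 Compound given intraperitoneally in saline to 24 h-fasted male Wistar rats about 150 g, followed after one hour by 6 h restraint with water immersion at 21 °C. Gastric lesions graded 0, 0.5, 1, 2 or 3 on microscopic inspection and converted to percent ulcer inhibition.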
row,SMILES,inhibition in vivo at 25 mg/kg
1,CCCCNC(=O)CC(N)C(O)C(O)C(=O)NC(CC(C)C)C1Cc2cccc(O)c2C(=O)O1 (centres unmarked) [VII-1-4],100%
2,CC(=O)Oc1cccc2c1C(=O)OC(C(CC(C)C)NC(=O)C(OC(=O)C(C)C)C(O)C(N)CC(N)=O)C2 (centres unmarked) [VII-3-1],78%
3,CCOc1cccc2c1C(=O)OC(C(CC(C)C)NC(=O)C(O)C(O)C(CC(N)=O)NC)C2 (centres unmarked) [VII-23-1],89%
4,COC(C(=O)NC(CC(C)C)C1Cc2cccc(OC(C)=O)c2C(=O)O1)C(O)C(N)CC(N)=O (centres unmarked) [VII-9-3],72%
5,CCCCOC(C(=O)NC(CC(C)C)C1Cc2cccc(OC(C)=O)c2C(=O)O1)C(O)C(CC(N)=O)NCC (centres unmarked) [VII-18-1],66%
6,CC(C)CC(NC(=O)C(O)C(O)C(N)CC(=O)NCC1CCCCCCC1)C1Cc2cccc(O)c2C(=O)O1 (centres unmarked) [VII-1-33],83%
7,CNC(CC(N)=O)C(O)C(OC(=O)CC(C)C)C(=O)NC(CC(C)C)C1Cc2cccc(O)c2C(=O)O1 (centres unmarked) [VII-20-2],66%
8,CC(C)CC(NC(=O)C(O)C(O)C(N)CC(=O)NC(C)C)C1Cc2cccc(O)c2C(=O)O1 (centres unmarked) [VII-1-42],94%

# Same assay, conditions: Rattus norvegicus, ip; 50 mg/kg i.p.; read-out: % Inhibition of Ulcer
row,SMILES,inhibition in vivo at 50 mg/kg
1,CCOc1cccc2c1C(=O)OC(C(CC(C)C)NC(=O)C(OC)C1OC(=O)CC1NC(=O)CC(C)OC)C2 (centres unmarked) [IIIa-7-7],33%
2,CC(C)CC(NC(=O)C(O)C1OC(=O)CC1N)C1Cc2cccc(OC(=O)C3CCCO3)c2C(=O)O1 (centres unmarked) [IIIa-12-5],78%
3,CCN1CCCC(N=C(NC(CC(C)C)C2Cc3cccc(O)c3C(=O)O2)C(O)C(O)C(N)CC(=O)O)C1 (centres unmarked) [Vb-1-43],83%
4,COC(C(=O)NC(CC(C)C)C1Cc2cccc(OC(C)=O)c2C(=O)O1)C1OC(=O)CC1N (centres unmarked) [IIIa-17-1],56%
5,CCOc1cccc2c1C(=O)OC(C(CC(C)C)NC(=O)C(O)C1OC(=O)CC1NC(=O)Cn1cnnn1)C2 (centres unmarked) [IIIa-5-72],44%
6,CCCCCCCCC=CCCCCCCCC(=O)NC1CC(=O)OC1C(OC(C)=O)C(=O)NC(CC(C)C)C1Cc2cccc(OCC)c2C(=O)O1 (centres unmarked) [IIIa-6-5],22%
7,CCCCOC(C(=O)NC(CC(C)C)C1Cc2cccc(OC(C)=O)c2C(=O)O1)C1OC(=O)CC1NCC (centres unmarked) [IIIa-26-1],66%
8,CCOC(C(=N)NC(CC(C)C)C1Cc2cccc(O)c2C(=O)O1)C(O)C(N)CC(=O)O (centres unmarked) [Vb-8-3],78%
9,CCOc1cccc2c1C(=O)OC(C(CC(C)C)NC(=O)C(O)C1OC(=O)CC1NC(=O)c1ccc(C)cc1)C2 (centres unmarked) [IIIa-5-37],44%
10,CCOc1cccc2c1C(=O)OC(C(CC(C)C)NC(=O)C(O)C1OC(=O)CC1NC(=O)c1ccc(SC)cc1)C2 (centres unmarked) [IIIa-5-45],33%
11,CC(=O)OC(C(=N)NC(CC(C)C)C1Cc2cccc(O)c2C(=O)O1)C(O)C(CC(=O)O)NCCC(C)C (centres unmarked) [Vb-11-2],66%
12,CC(=O)Oc1ccc(C(=O)NC2CC(=O)OC2C(O)C(=O)NC(CC(C)C)C2Cc3cccc(O)c3C(=O)O2)cc1 (centres unmarked) [IIIa-1-34],66%
13,C#CCNC1CC(=O)OC1C(O)C(=O)NC(CC(C)C)C1Cc2cccc(OCC)c2C(=O)O1 (centres unmarked) [IIIa-22-47],94%
14,CCOC(=O)CCC(=O)NC1CC(=O)OC1C(O)C(=O)NC(CC(C)C)C1Cc2cccc(O)c2C(=O)O1 (centres unmarked) [IIIa-1-36],66%
15,Cc1ccc(N=C(NC(CC(C)C)C2Cc3cccc(O)c3C(=O)O2)C(O)C(O)C(N)CC(=O)O)cc1 (centres unmarked) [Vb-1-42],83%
16,C/C=C/C(=O)NC1CC(=O)OC1C(O)C(=O)NC(CC(C)C)C1Cc2cccc(OCC)c2C(=O)O1 (centres unmarked) [IIIa-5-53],33%
17,CCCCCCCCCCCC(=O)Oc1cccc2c1C(=O)OC(C(CC(C)C)NC(=O)C(O)C1C=CC(=O)O1)C2 (centres unmarked) [IVa-3-8],33%
18,CCCCCCCCCCCCCCCCCC(=O)OC(C(=O)NC(CC(C)C)C1Cc2cccc(OCC)c2C(=O)O1)C1OC(=O)CC1N (centres unmarked) [IIIa-14-3],44%
19,CNC(=O)C=CC(O)C(O)C(=O)NC(CC(C)C)C1Cc2cccc(O)c2C(=O)O1 (centres unmarked) [VIII-1-1],56%

row,SMILES,inhibition in vivo at 50 mg/kg
1,CCC(=O)COc1cccc2c1C(=O)OC(C(CC(C)C)NC(=O)C(O)C1OC(=O)CC1N)C2 (centres unmarked) [IIIa-13-20],100%
2,CCCCCCCCC=CCCCCCCCCOc1cccc2c1C(=O)OC(C(CC(C)C)NC(=O)C(O)C1OC(=O)CC1NC(C)=O)C2 (centres unmarked) [IIIa-5-8],33%
3,CC(C)=CCNC1CC(=O)OC1C(O)C(=O)NC(CC(C)C)C1Cc2cccc(O)c2C(=O)O1 (centres unmarked) [IIIa-18-70],94%
4,CCC(=O)COc1cccc2c1C(=O)OC(C(CC(C)C)NC(=O)C(O)C1OC(=O)CC1NC(=O)C(Cl)(Cl)Cl)C2 (centres unmarked) [IIIa-5-125],33%
5,CCCCCCCCCCCCCCCCCCOc1cccc2c1C(=O)OC(C(CC(C)C)NC(=O)C(OCCCC)C1OC(=O)CC1N)C2 (centres unmarked) [IIIa-15-3],44%
6,CCCCCSCC(=O)NC1CC(=O)OC1C(O)C(=O)NC(CC(C)C)C1Cc2cccc(OCC)c2C(=O)O1 (centres unmarked) [IIIa-5-44],33%
7,CC(Br)=C(C)C(=O)NC1CC(=O)OC1C(O)C(=O)NC(CC(C)C)C1Cc2cccc(O)c2C(=O)O1 (centres unmarked) [IIIa-1-80],66%
8,CNC1CC(=O)OC1C(OC)C(=O)NC(CC(C)C)C1Cc2cccc(OC(C)=O)c2C(=O)O1 (centres unmarked) [IIIa-35-1],56%
9,CCCCCCCCC=CCCCCCCCC(=O)Oc1cccc2c1C(=O)OC(C(CC(C)C)NC(=O)C(O)C1OC(=O)CC1N)C2 (centres unmarked) [IIIa-12-4],72%
10,COC(C(=O)NC(CC(C)C)C1Cc2cccc(O)c2C(=O)O1)C1OC(=O)CC1N (centres unmarked) [IIIa-16-1],72%
11,CCCCCCCCCCCCCCCCCCNC(=O)C=CC(O)C(O)C(=O)NC(CC(C)C)C1Cc2cccc(O)c2C(=O)O1 (centres unmarked) [VIII-1-3],44%
12,CC(C)CC(NC(=O)C(O)C1OC(=O)CC1NC(=O)C(Cl)(Cl)Cl)C1Cc2cccc(OCCCC3CCCC3)c2C(=O)O1 (centres unmarked) [IIIa-5-124],33%
13,CCC(=O)OC(C(=O)NC(CC(C)C)C1Cc2cccc(O)c2C(=O)O1)C1C=CC(=O)O1 (centres unmarked) [IVa-1-2],44%
14,CCOc1cccc2c1C(=O)OC(C(CC(C)C)NC(=O)C(O)C1OC(=O)CC1NCC(Cl)(Cl)Cl)C2 (centres unmarked) [IIIa-22-13],78%
15,CCCOC(C(=O)NC(CC(C)C)C1Cc2cccc(OCC)c2C(=O)O1)C1OC(=O)CC1NC(=O)C(Cl)(Cl)Cl (centres unmarked) [IIIa-7-17],33%
16,CCOc1cccc2c1C(=O)OC(C(CC(C)C)NC(=O)C(OC(=O)CC)C1OC(=O)CC1NC(=O)C(Cl)(Cl)Cl)C2 (centres unmarked) [IIIa-6-13],33%
17,CC(=O)N1CCC(COc2cccc3c2C(=O)OC(C(CC(C)C)NC(=O)C(O)C2OC(=O)CC2N)C3)CC1 (centres unmarked) [IIIa-13-16],89%
18,CC(C)CC(NC(=O)C(O)C1OC(=O)CC1NC(=O)Cc1ccccc1)C1Cc2cccc(O)c2C(=O)O1 (centres unmarked) [IIIa-1-20],66%
19,CCCCCSCCNC1CC(=O)OC1C(O)C(=O)NC(CC(C)C)C1Cc2cccc(O)c2C(=O)O1 (centres unmarked) [IIIa-18-39],94%

row,SMILES,inhibition in vivo at 50 mg/kg
1,CCCCNC(CC(=O)O)C(O)C(OC(=O)CCC)C(=N)NC(CC(C)C)C1Cc2cccc(O)c2C(=O)O1 (centres unmarked) [Vb-11-3],72%
2,CC(C)CC(NC(=O)C(O)C1OC(=O)CC1NC(=O)C(C)C)C1Cc2cccc(O)c2C(=O)O1 (centres unmarked) [IIIa-1-4],66%
3,CCCCCCCCC=CCCCCCCCCOc1cccc2c1C(=O)OC(C(CC(C)C)NC(=O)C(O)C1C=CC(=O)O1)C2 (centres unmarked) [IVa-4-7],33%
4,CCOc1cccc2c1C(=O)OC(C(CC(C)C)NC(=O)C(O)C1OC(=O)CC1NC(=O)CCCCCCCCCO)C2 (centres unmarked) [IIIa-5-75],33%
5,CCCCCCCCCCCCCCCCCCOc1cccc2c1C(=O)OC(C(CC(C)C)NC(=O)C(O)C1C=CC(=O)O1)C2 (centres unmarked) [IVa-4-5],33%
6,CC(=O)NC1CC(=O)OC1C(OC(C)=O)C(=O)NC(CC(C)C)C1Cc2cccc(OC(C)=O)c2C(=O)O1 (centres unmarked) [IIIa-3-1],33%
7,CC(C)CC(NC(=O)C(O)C1OC(=O)CC1NC(=O)C1CCCCCCC1)C1Cc2cccc(O)c2C(=O)O1 (centres unmarked) [IIIa-1-62],66%
8,CC(C)CC(NC(=O)C(O)C1OC(=O)CC1N)C1Cc2cccc(OCCc3ccccc3)c2C(=O)O1 (centres unmarked) [IIIa-13-12],89%
9,CC(C)CCOc1ccc(COc2cccc3c2C(=O)OC(C(CC(C)C)NC(=O)C(O)C2C=CC(=O)O2)C3)cc1 (centres unmarked) [IVa-4-24],33%
10,CCCCCOC(C)CC(=O)NC1CC(=O)OC1C(O)C(=O)NC(CC(C)C)C1Cc2cccc(OCC)c2C(=O)O1 (centres unmarked) [IIIa-5-42],33%
11,CCCCCSc1ccc(C(=O)NC2CC(=O)OC2C(O)C(=O)NC(CC(C)C)C2Cc3cccc(OCC)c3C(=O)O2)cc1 (centres unmarked) [IIIa-5-46],33%
12,CCCCCCCCCCCCCCCCCC(=O)OC(C(=O)NC(CC(C)C)C1Cc2cccc(O)c2C(=O)O1)C1C=CC(=O)O1 (centres unmarked) [IVa-1-11],33%
13,CCOc1cccc2c1C(=O)OC(C(CC(C)C)NC(=O)C(O)C1OC(=O)CC1NC(=O)C1CC3C=CC1C3)C2 (centres unmarked) [IIIa-5-69],33%
14,CCOC(C(=N)NC(CC(C)C)C1Cc2cccc(OCCC(C)OC)c2C(=O)O1)C(O)C(N)CC(=O)O (centres unmarked) [Vb-9-3],66%
15,CC(=O)Oc1cccc2c1C(=O)OC(C(CC(C)C)NC(=N)C(OC(=O)C(C)C)C(O)C(N)CC(=O)O)C2 (centres unmarked) [Vb-3-1],56%
16,CCOc1cccc2c1C(=O)OC(C(CC(C)C)NC(=O)C(O)C1OC(=O)CC1NC(=O)c1cccn1C)C2 (centres unmarked) [IIIa-5-29],33%
17,CC(C)CC(NC(=O)C(O)C1OC(=O)CC1NC(=O)C(Cl)(Cl)Cl)C1Cc2cccc(O)c2C(=O)O1 (centres unmarked) [IIIa-1-12],66%
18,CCCCOC(C(=O)NC(CC(C)C)C1Cc2cccc(OCC)c2C(=O)O1)C1OC(=O)CC1NC(=O)c1ccc(C)cc1 (centres unmarked) [IIIa-7-8],22%
19,CCCCCCCCCCCCCCCCCCOc1cccc2c1C(=O)OC(C(CC(C)C)NC(=O)C(O)C1OC(=O)CC1NC)C2 (centres unmarked) [IIIa-31-3],78%
